Values after ≈ are worked out from the molar mass of the structure shown.
Assays:
Type in all cases: cell-based
[1] = tested on: S. aureus ATCC 33591 (methicillin-resistant); assay: broth microdilution MIC assay, S. aureus 33591; conditions: Staphylococcus aureus, ATCC33591; S. aureus 33591, methicillin-resistant; read-out: MIC, S. aureus 33591
Experimental: (§1) To determine the ability of test compounds to inhibit the growth of bacterial strains, classic cell-based broth microdilution MIC assays were employed. MIC assays are performed according to CLSI methods except where otherwise noted (CLSI, 2011 and CLSI, 2009). The reference strains S. aureus ATCC 29213 (methicillin sensitive), S. aureus ATCC 33591 (methicillin-resistant), E. coli ATCC 25922 (wild-type/QC strain), P. aeruginosa ATCC 27853 (wild-type/QC strain), and the clinical isolate P. aeruginosa PA 8 were used to determine the ability of the exemplary carbapenem compounds to inhibit bacterial growth. An expanded panel of methicillin resistance S. aureus (MRSA) and Pseudomonas was also used to determine the ability of exemplary carbapenem compounds to inhibit bacterial growth across a broader representation of those species. To determine activity in MRSA and in addition to S. aureus ATCC 33591, S. aureus USA 300 and USA 600, some of the most common clones found to cause human infection, were also used. To further gauge the impact on the carbapenem compounds due to various resistance mechanisms in Pseudomonas, the following strains were included: P. aeruginosa 35151 (hyper-permeable strain), P. aeruginosa ΔmexAB-OprM (an efflux pump knockout), and P. aeruginosa Paβ-173 (a clinical isolate of reduced carbapenem susceptibility). Briefly, cryo-preserved bacterial cultures of clinical strains are streaked for isolation on appropriate agar medium, in this case Mueller Hinton II agar. Following incubation to allow formation of colonies, these plates are sealed with parafilm and stored refrigerated for up to two weeks. For preparation of assay inocula and to ensure low variability, at least 5 colonies are picked from the agar plates with an inoculating loop and aseptically transferred to a culture tube containing 3 mL of Mueller-Hinton Broth (supplemented with divalent cations to required levels based on Manufacturers' specification). The broth culture is grown for 3-5 hours at 37° C. with shaking at 200 rpm. Meanwhile, 2-fold serial dilutions of test compounds are conducted in a 96 well plate with a final volume of 75 μL per well at 2-fold the final desired concentration. After the dilution plates are set up the growing cultures are then diluted in a cuvette containing MH II broth and the optical density is measured at 600 nm. Inocula are diluted such that 75 μL of this culture in Mueller-Hinton Broth results in a starting bacterial concentration of 5×10^5 CFU/mL when added to the dilution plates. The plates are incubated 16-20 hours at 37° C. The MIC is read visually as the lowest concentration well with no bacterial growth.

[2] = tested on: S. aureus USA 300; assay: broth microdilution MIC assay, S. aureus USA300; conditions: Staphylococcus aureus; S. aureus USA300 (MRSA); read-out: MIC, S. aureus USA300
Experimental: as §1

[3] = tested on: S. aureus USA 600; assay: broth microdilution MIC assay, S. aureus USA600; conditions: Staphylococcus aureus; S. aureus USA600 (MRSA); read-out: MIC, S. aureus USA600
Experimental: as §1

[4] = tested on: E. coli ATCC 25922 (wild-type/QC strain); assay: broth microdilution MIC assay, E. coli 25922; conditions: Escherichia coli, ATCC25922; read-out: MIC, E. coli 25922
Experimental: as §1

[5] = tested on: P. aeruginosa ATCC 27853 (wild-type/QC strain); assay: broth microdilution MIC assay, P. aeruginosa 27853; conditions: Pseudomonas aeruginosa, ATCC27853; read-out: MIC, P. aeruginosa 27853
Experimental: as §1

[6] = tested on: P. aeruginosa 35151 (hyper-permeable strain); assay: broth microdilution MIC assay, P. aeruginosa 35151; conditions: Pseudomonas aeruginosa, read-out: MIC, P. aeruginosa 35151
Experimental: as §1

[7] = tested on: P. aeruginosa ΔmexAB-OprM (an efflux pump knockout); assay: broth microdilution MIC assay, P. aeruginosa ΔmexAB-OprM; conditions: Pseudomonas aeruginosa, read-out: MIC, P. aeruginosa ΔmexAB-OprM
Experimental: as §1

[8] = tested on: P. aeruginosa Paeβ-17; assay: broth microdilution MIC assay, P. aeruginosa Paeβ-17; conditions: Pseudomonas aeruginosa, read-out: MIC, P. aeruginosa Paeβ-17
Experimental: as §1

Compound	MIC [1] [µg/mL]	MIC [2] [µg/mL]	MIC [3] [µg/mL]	MIC [4] [µg/mL]	MIC [5] [µg/mL]	MIC [6] [µg/mL]	MIC [7] [µg/mL]	MIC [8] [µg/mL]
C[C@@H](O)[C@H]1C(=O)N2C(C(=O)O)=C(S[C@H]3C[C@H](N[C@H]4CC[C@H](NC(=N)N)CC4)C3)[C@H](C)[C@H]12 [Example 68, (4R,5S,6S)-3-(((1R,3R)-3-(((1R,4R)-4-guanidinocyclohexyl)amino)cyclobutyl)thio)-6-((R)-1-hydroxyethyl)-4-methyl-7-oxo-1-azabicyclo[3.2.0]hept-2-ene-2-carboxylic acid]	8 to 32 (≈ 17.7 to 70.9 µM)	1 to 4 (≈ 2.21 to 8.86 µM)	1 to 4 (≈ 2.21 to 8.86 µM)	< 1	8 to 32 (≈ 17.7 to 70.9 µM)	< 1	1 to 4 (≈ 2.21 to 8.86 µM)	8 to 32 (≈ 17.7 to 70.9 µM)
C[C@@H](O)[C@H]1C(=O)N2C(C(=O)O)=C(SC3CN([C@@H]4CC[C@@H](N)C4)C3)[C@H](C)[C@H]12 [Example 8, (4R,5S,6S)-3-((1-((1R,3R)-3-aminocyclopentyl)azetidin-3-yl)thio)-6-((R)-1-hydroxyethyl)-4-methyl-7-oxo-1-azabicyclo[3.2.0]hept-2-ene-2-carboxylic acid]	1 to 4 (≈ 2.62 to 10.5 µM)	1 to 4 (≈ 2.62 to 10.5 µM)	1 to 4 (≈ 2.62 to 10.5 µM)	< 1	1 to 4 (≈ 2.62 to 10.5 µM)	< 1	1 to 4 (≈ 2.62 to 10.5 µM)	8 to 32 (≈ 21 to 83.9 µM)
C[C@@H](O)[C@H]1C(=O)N2C(C(=O)O)=C(SC3CN([C@H]4CC[C@H](CNC(=N)N)CC4)C3)[C@H](C)[C@H]12 [Example 66, (4R,5S,6S)-3-((1-((1R,4R)-4-(guanidinomethyl)cyclohexyl)azetidin-3-yl)thio)-6-((R)-1-hydroxyethyl)-4-methyl-7-oxo-1-azabicyclo[3.2.0]hept-2-ene-2-carboxylic acid]	1 to 4 (≈ 2.21 to 8.86 µM)	1 to 4 (≈ 2.21 to 8.86 µM)	1 to 4 (≈ 2.21 to 8.86 µM)	< 1	1 to 4 (≈ 2.21 to 8.86 µM)	< 1	1 to 4 (≈ 2.21 to 8.86 µM)	8 to 32 (≈ 17.7 to 70.9 µM)
C[C@@H](O)[C@H]1C(=O)N2C(C(=O)O)=C(S[C@H]3C[C@H](N[C@H]4CC[C@@H](N)CC4)C3)[C@H](C)[C@H]12 [Example 60, (4R,5S,6S)-3-(((1R,3R)-3-(((1S,4S)-4-aminocyclohexyl)amino)cyclobutyl)thio)-6-((R)-1-hydroxyethyl)-4-methyl-7-oxo-1-azabicyclo[3.2.0]hept-2-ene-2-carboxylic acid]	8 to 32 (≈ 19.5 to 78.1 µM)	1 to 4 (≈ 2.44 to 9.77 µM)	1 to 4 (≈ 2.44 to 9.77 µM)	< 1	8 to 32 (≈ 19.5 to 78.1 µM)	< 1	1 to 4 (≈ 2.44 to 9.77 µM)	8 to 32 (≈ 19.5 to 78.1 µM)
C[C@@H](O)[C@H]1C(=O)N2C(C(=O)O)=C(SC3CN([C@H]4C[C@@H](N)C4)C3)[C@H](C)[C@H]12 [Example 3, (4R,5S,6S)-3-((1-((1s,3S)-3-aminocyclobutyl)azetidin-3-yl)thio)-6-((R)-1-hydroxyethyl)-4-methyl-7-oxo-1-azabicyclo[3.2.0]hept-2-ene-2-carboxylic acid]	8 to 32 (≈ 21.8 to 87.1 µM)	1 to 4 (≈ 2.72 to 10.9 µM)	1 to 4 (≈ 2.72 to 10.9 µM)	< 1	8 to 32 (≈ 21.8 to 87.1 µM)	< 1	1 to 4 (≈ 2.72 to 10.9 µM)	> 32
C[C@@H](O)[C@H]1C(=O)N2C(C(=O)O)=C(SC3CN(C4CCNC4)C3)[C@H](C)[C@H]12 (stereo partly drawn) [Example 37, (4R,5S,6S)-6-((R)-1-hydroxyethyl)-4-methyl-7-oxo-3-((1-(pyrrolidin-3-yl)azetidin-3-yl)thio)-1-azabicyclo[3.2.0]hept-2-ene-2-carboxylic acid]	8 to 32 (≈ 21.8 to 87.1 µM)	1 to 4 (≈ 2.72 to 10.9 µM)	1 to 4 (≈ 2.72 to 10.9 µM)	< 1	8 to 32 (≈ 21.8 to 87.1 µM)	< 1	1 to 4 (≈ 2.72 to 10.9 µM)	8 to 32 (≈ 21.8 to 87.1 µM)
C[C@@H](O)[C@H]1C(=O)N2C(C(=O)O)=C(S[C@H]3C[C@@H](N[C@@H]4CC[C@H](N)C4)C3)[C@H](C)[C@H]12 [Example 77, (4R,5S,6S)-3-(((1S,3S)-3-(((1R,3S)-3-aminocyclopentyl)amino)cyclobutyl)thio)-6-((R)-1-hydroxyethyl)-4-methyl-7-oxo-1-azabicyclo[3.2.0]hept-2-ene-2-carboxylic acid]	8 to 32 (≈ 20.2 to 80.9 µM)	1 to 4 (≈ 2.53 to 10.1 µM)	1 to 4 (≈ 2.53 to 10.1 µM)	< 1	1 to 4 (≈ 2.53 to 10.1 µM)	< 1	8 to 32 (≈ 20.2 to 80.9 µM)	1 to 4 (≈ 2.53 to 10.1 µM)
